In ChEMBL document CHEMBL5604063, “ASAP - DENV-2 NS2B-NS3 protease fluorescence dose response” (2024) one finds IC50 data, which are given here for 27 molecules.

pIC50: −log10 of the molar value. Several values for one entry are separate records, joined by “and”; a condition that tells them apart may be missing. Equal values may be shown once. Where only a bound is given, the exact number is not on record here.

The target of experiment [1] is T1, Genome polyprotein (dengue virus type 2, UniProt P29990). Type of experiment: functional, Thailand/16681/1984.
Experiment [2] concerns the target T1, Genome polyprotein. The experiment is classed as functional, Thailand/16681/1984. The source holds these as a separate data set.

T1 sequence (P29990 1346-1475 limits assumed): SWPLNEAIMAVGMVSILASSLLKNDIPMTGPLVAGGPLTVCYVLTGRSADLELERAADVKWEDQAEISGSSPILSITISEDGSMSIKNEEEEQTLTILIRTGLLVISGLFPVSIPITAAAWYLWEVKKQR
T1 sequence (P29990 1476-2093 limits assumed): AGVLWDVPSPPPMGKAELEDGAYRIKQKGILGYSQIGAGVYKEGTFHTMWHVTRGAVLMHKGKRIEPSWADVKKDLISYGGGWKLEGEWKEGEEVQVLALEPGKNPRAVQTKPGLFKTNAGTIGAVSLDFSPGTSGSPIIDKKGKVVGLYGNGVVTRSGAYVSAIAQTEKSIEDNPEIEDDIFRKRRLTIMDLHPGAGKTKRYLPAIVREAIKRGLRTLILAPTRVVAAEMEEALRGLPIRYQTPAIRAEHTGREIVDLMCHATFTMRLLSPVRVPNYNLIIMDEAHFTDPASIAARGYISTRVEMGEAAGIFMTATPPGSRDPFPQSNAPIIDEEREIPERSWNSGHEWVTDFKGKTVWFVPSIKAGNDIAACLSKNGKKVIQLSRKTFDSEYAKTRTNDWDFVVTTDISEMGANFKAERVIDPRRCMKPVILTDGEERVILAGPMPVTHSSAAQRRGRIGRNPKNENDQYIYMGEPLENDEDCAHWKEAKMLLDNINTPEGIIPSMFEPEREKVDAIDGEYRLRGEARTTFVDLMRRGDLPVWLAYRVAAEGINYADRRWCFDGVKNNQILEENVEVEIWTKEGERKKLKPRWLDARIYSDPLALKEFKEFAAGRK

Consider `N[C@H]1CCOc2ccc(NC(=O)c3cc(Cl)cc(NC(=O)OCc4ccccc4)c3)cc21`, for which the pIC50 against Genome polyprotein [1] and against Genome polyprotein [2] was less than 4.00 in each case.

Regarding `COc1ccc2c(c1)c(C(=O)Nc1cccc(CN)c1)c(C)n2C1CCCC1`, the negative logarithm of the IC50 (pIC50) on Genome polyprotein [1] and against Genome polyprotein [2] was less than 4.00 in each case.

As to `O=C(Nc1ccc2c(c1)CNC2)c1ccc2ccncc2c1`, the pIC50 against Genome polyprotein [1] and at Genome polyprotein [2] was less than 4.00 in each case.

For the molecule `CN(C)Cc1ccc(NC(=O)c2cc(Cl)cc(NC(=O)OCc3ccccc3)c2)cc1`, the pIC50 against Genome polyprotein [1] and at Genome polyprotein [2] was less than 4.00 in each case.

Turning to `CCc1cccc(-c2nc3c(C(=O)Nc4ccc5c(c4)CNC5)cc(F)cc3[nH]2)c1`, the negative-log IC50 (pIC50) at Genome polyprotein [1] is 4.84 and 5.12; at Genome polyprotein [2] it was 4.05 and < 4.00.

Take `CC(C)(C)NC(=O)C[C@H]1NCc2cc(NC(=O)c3cc(Cl)cc4[nH]ncc34)ccc21`: the pIC50 at Genome polyprotein [1] and against Genome polyprotein [2] was less than 4.00 in each case.

Turning to `CC[C@H](Cc1nn[nH]n1)c1ccc(N[C@H](C(=O)NC)c2cc(Cl)cc(NC(=O)OCc3ccccc3)c2)cc1`, the pIC50 on Genome polyprotein [1] was 4.53; at Genome polyprotein [2], 4.81 and 4.60.

Turning to `CNC(=O)[C@H](Nc1ccc(-c2nn[nH]n2)cc1)c1cc(Cl)cc(NC(=O)OCc2ccccc2)c1`, the pIC50 against Genome polyprotein [1] was 4.30; at Genome polyprotein [2], 4.39.

Take `O=C(NCC(F)F)[C@H](Nc1ccc2c(c1)CNC2)c1cc(Br)ccc1OCc1ccccn1`: the pIC50 against Genome polyprotein [1] and on Genome polyprotein [2] was less than 4.00 throughout.

As for `O=C(O)Cc1cn2nc(-c3cc(Cl)cc(NC(=O)OCc4ccccc4)c3)ccc2n1`, the pIC50 at Genome polyprotein [1] and at Genome polyprotein [2] was less than 4.00 throughout.

Consider `N[C@H]1CCc2ncc(NS(=O)(=O)c3ccc(Oc4ccccc4Cl)cc3)cc2C1`, for which the pIC50 against Genome polyprotein [1] and against Genome polyprotein [2] was less than 4.00 throughout.

Take `CCOc1cccc(-c2ccc(S(=O)(=O)Nc3ccc(Cl)cc3C(=O)O)cc2C)c1`: the pIC50 was 5.15 at Genome polyprotein [1] and 5.13 against Genome polyprotein [2].

On to `CC(C)(C)NC(=O)[C@H](Nc1cccc(-c2nn[nH]n2)c1)c1cc(Cl)cc(NC(=O)OCc2ccccc2)c1`, for which the pIC50 was 4.95 at Genome polyprotein [1]; 5.15 and 5.12 on Genome polyprotein [2].

With `NCc1cccc(NC(=O)[C@@H](NC(=O)OCc2ccccc2)c2ccc(OCc3cnccn3)cc2)c1`, the pIC50 on Genome polyprotein [1] and against Genome polyprotein [2] was less than 4.00 each time.

In the case of `Cc1[nH]c2ccc(Cl)cc2c1Cc1ccc(-c2nnn[nH]2)cc1`, the pIC50 is 4.37 on Genome polyprotein [1] and 4.68 at Genome polyprotein [2].

As to `O=C1CCc2c(cccc2C(=O)Nc2ccc3c(c2)CNC3)N1`, the pIC50 on Genome polyprotein [1] and against Genome polyprotein [2] was less than 4.00 throughout.

`O=C(Nc1ccc2c(c1)CNC2)c1cc(Cl)cc2cc[nH]c12`: the negative logarithm of the IC50 (pIC50) against Genome polyprotein [1] and on Genome polyprotein [2] was less than 4.00 each time.

As to `COCCN(C)C(=O)Cn1ccnc(N2CC[C@@H](CO)C2)c1=O`, the pIC50 against Genome polyprotein [1] and at Genome polyprotein [2] was less than 4.00 throughout.

As for `O=C(O)CCCc1cc(NC(=O)c2cc(F)cc3[nH]ncc23)cc2c1CNC2`, the pIC50 was less than 4.00 at Genome polyprotein [1] and 4.31 against Genome polyprotein [2].

With `C[C@H]1CC2(CN1C(=O)Nc1ccc3c(c1)CNC3)CC(F)(F)C2`, the pIC50 on Genome polyprotein [1] and at Genome polyprotein [2] was less than 4.00 each time.

In the case of `Cc1c(C(=O)Nc2cc([C@H]3CCOC3)ccn2)cc(C2CC2)n1C`, the pIC50 against Genome polyprotein [1] and against Genome polyprotein [2] was less than 4.00 each time.

`O=C(Nc1ccc2c(c1)CNC2)N1CC[C@H](Oc2ccc(C3CC3)cn2)C1`: the pIC50 on Genome polyprotein [1] and on Genome polyprotein [2] was less than 4.00 throughout.

As to `Cc1cc(CN)cc(NS(=O)(=O)c2ccc(Oc3ccccc3Cl)cc2)c1`, the pIC50 at Genome polyprotein [1] and at Genome polyprotein [2] was less than 4.00 each time.

Take `C[C@H]1C(=O)Nc2ccc(C(=O)Nc3ccc4c(c3)CNC4)cc21`: the pIC50 is 4.46 against Genome polyprotein [1]; 4.60 and 4.76 against Genome polyprotein [2].

`CC(=O)Nc1cc(Br)cc(C(=O)Nc2ccc3c(c2)CNC3)c1`: the pIC50 on Genome polyprotein [1] and at Genome polyprotein [2] was less than 4.00 throughout.

`Cn1nnnc1-c1cccc(NC(=O)c2cc(Cl)cc(NC(=O)OCc3ccccc3)c2)c1`: the pIC50 at Genome polyprotein [1] and against Genome polyprotein [2] was less than 4.00 in each case.

For the molecule `O=C(Nc1ccc2c(c1)CNC2)c1ncnc2[nH]ccc12`, the pIC50 against Genome polyprotein [1] and against Genome polyprotein [2] was less than 4.00 in each case.

The term pIC50 denotes −log10 of the IC50, conventionally taken in molar units.
